Measurements taken from paper PMC7284918, “In-Depth Characterization of EpiIntestinal Microtissue as a Model for Intestinal Drug Absorption and Metabolism in Human” (Pharmaceutics, 2020).
Where two headings read alike, the source gives them in different places. Marks after values point to notes of the source that are not given here.

How the values were obtained:
[1] = tested on: EpiIntestinal microtissues; assay: Intestinal first-pass availability in EpiIntestinal microtissues; type: in vitro ADME, human
Description: (§1) Compounds were diluted in culture media to a final concentration of 10 µM and added to the apical (donor) compartment (total volume: 100 µL for EpiIntestinal and 200 µL for Caco-2). After the incubation at 37 °C for 2, 4, 6, and 24 h, samples (50 µL) were taken from the basal (receiver) compartment (total volume: 5000 µL for EpiIntestinal and 800 µL for Caco-2). After the last timepoint, samples from the donor compartments and the cell lysates were also collected. Compound concentrations in the samples were determined by HPLC-MS/MS (Section 2.3).
(§2) GI first-pass availability of the tested compounds was expressed as fraction (%) of the total amount of a compound added to the donor compartment recovered in the receiver compartment.

Caco-2 cells [2] = assay: Intestinal first-pass availability in Caco-2; type: in vitro ADME, human; details: Caco-2
Description: as §1, §2

[3] = Intestinal first-pass availability in EpiIntestinal microtissues; type: in vitro ADME, human; details: human, 10 µM apical
Description: as §1, §2

[4] = Clinical pharmacokinetic data and calculated Fa × Fg in human; type: in vivo; details: calculated from clinical pharmacokinetic data (Section 2.8, Table 2)
Description: A set of 12 marketed drugs are selected for the evaluation of EpiIntestinal microtissues.

[5] = human, cited from earlier work
[6] = tested on: human intestinal mucosa (HIM); assay: Metabolite identification in cryopreserved human intestinal mucosa (HIM); type: in vitro ADME; details: 10 µM, peak areas at end of incubation
Description: (§3) Raloxifene or ezetimibe (10 µM) in culture media was added to the apical compartment of EpiIntestinal microtissues or incubated with cryopreserved human intestinal mucosa (HIM). […] Analysis was performed on a LC-MS system containing a Vanquish UPLC (ThermoFisher Scientific, San Jose, CA, USA) coupled to an Orbitrap FusionTribrid high resolution mass spectrometer (ThermoFisher Scientific). Structure elucidation was based on exact mass measurements in combination with the interpretation of fragment spectra.

[7] = tested on: EpiIntestinal microtissues; assay: Metabolite identification in EpiIntestinal microtissues; type: in vitro ADME, human; details: 10 µM, peak areas at end of incubation
Description: as §3

Caco-2 cells [8] = assay: Bidirectional permeability assay in Caco-2; type: in vitro ADME, human; details: Ko-143 3 µM, zosuquidar 5 µM
[9] = tested on: EpiIntestinal microtissues; assay: Bidirectional permeability assay in EpiIntestinal microtissues; type: in vitro ADME, human; details: Ko-143 3 µM, zosuquidar 5 µM
Description: Caco-2 cells were obtained from Leibniz Institute DSMZ-German Collection of Microorganisms and Cell Cultures (Braunschweig, Germany) and cultured in DMEM containing 10% FCS, 1% NEAA, 2 mM Glutamin, 100 U/mL Penicillin and 100 µg/mL Streptomycin. […] EpiIntestinal microtissues were obtained from MatTek (Bratislav, Slovakia) and cultured according to the manufacturer’s instruction (24-well format for bidirectional permeability assays and GI firstpass availability assays and 96-well format for screening of DME activities).
Bidirectional permeability assays were performed as described previously. […] In indicated experiments, inhibitors were added to both compartments. Cells were incubated with the compounds for up to 2 h. Samples from the opposite compartment were taken at different timepoints. […] Prior to bioanalysis samples were spiked with internal standard solution and diluted with acetonitrile (ACN) for protein precipitation. Measurement was operated in multiple reaction monitoring (MRM) mode. Quantification was performed using external calibration. Apparent permeability coefficients in the apical to basal direction (Papp,AB) and in the basal to apical direction (Papp,BA) and efflux were calculated as follows Papp,AB=QAB/(C0×s×t) Papp,BA=QBA/(C0×s×t) Efflux=Papp,BA/Papp,AB where Q is the amount of compound recovered in the receiver compartment after the incubation time t, C0 the initial compound concentration given to the donor compartment, and s the surface area of the Transwell inserts. Efflux ratio is calculated as the quotient of Papp,BA to Papp,AB. […] In addition, Transepithelial electrical resistance (TEER) values are measured for each plate before the permeability assay and total recovery in donor and receiver compartments was determined for each compound. All these parameters (efflux of apafant, Papp values of the low permeable compound, TEER values, and total recovery) are used to ensure the quality of the assays.

[10] = Intestinal first-pass availability in Caco-2; type: in vitro ADME, human; details: human, Caco-2, Caco-2, 10 µM apical, read-out: Recovery in basal/receiver compartment after 24 h
Description: as §1, §2

CYP3A4 = details: Caco-2
Description: (§4) For measurements of DME activities in EpiIntestinal microtissues and Caco-2 cells, both were cultured in 96-well Transwell inserts. Drugs (Table 1) were dissolved in the respective solvent at 200x concentration and diluted in a pre-warmed transport buffer. Diluted substrate solution was applied to the apical (100 µL) and basal (250 µL) compartment of the Transwell and incubated at 37 °C and 5% CO2 and 60 rpm continuous shaking. DME activities were determined by monitoring metabolite formation in basal compartment over time (0, 0.5, 1, 2, 3 and 4 h) with LC-MS/MS. […] Chromatographic separation of samples was performed on YMC Triart C18 (1.9 µm, 30 × 2 mm; YMC Europe, Dinslaken, Germany) LC analytical column. Quantification of all metabolites listed in Table 1 was achieved by the use of calibration curves for the individual metabolites with appropriate concentration ranges.
(§5) A total of 10 µL of the incubation sample were diluted with 90 µL of water containing 10–20% ACN or methanol, 0.1% formic acid and the respective internal standard. To analyze the intracellular metabolite concentration, cells on Transwell inserts were washed twice with ice-cold PBS and stored at −80 °C for 20 min. Afterwards, 150 µL 50% ACN diluted with transport buffer was added to the cells and incubated at room temperature for 30 min. Cell lysate was transferred to a fresh 96-well plate and centrifuged at 4 °C, 4000 rpm for 10 min. Subsequently, 10 µL of the supernatant were diluted with 90 µl water containing 10–20% ACN or methanol, 0.1% formic acid and the respective internal standard. A total of 2 µL sample was injected into the LC-MS/MS system operated with an electrospray ionization source.

in vitro = details: human, plasma
Description: Blood CLb can be converted from plasma clearance CLp with the blood-to-plasma ratio RB: CLb=CLp/RB

CYP1A2 [11] = target: T1, CYP1A2 (Homo sapiens, UniProt P05177)
T1 sequence (P05177 1-516): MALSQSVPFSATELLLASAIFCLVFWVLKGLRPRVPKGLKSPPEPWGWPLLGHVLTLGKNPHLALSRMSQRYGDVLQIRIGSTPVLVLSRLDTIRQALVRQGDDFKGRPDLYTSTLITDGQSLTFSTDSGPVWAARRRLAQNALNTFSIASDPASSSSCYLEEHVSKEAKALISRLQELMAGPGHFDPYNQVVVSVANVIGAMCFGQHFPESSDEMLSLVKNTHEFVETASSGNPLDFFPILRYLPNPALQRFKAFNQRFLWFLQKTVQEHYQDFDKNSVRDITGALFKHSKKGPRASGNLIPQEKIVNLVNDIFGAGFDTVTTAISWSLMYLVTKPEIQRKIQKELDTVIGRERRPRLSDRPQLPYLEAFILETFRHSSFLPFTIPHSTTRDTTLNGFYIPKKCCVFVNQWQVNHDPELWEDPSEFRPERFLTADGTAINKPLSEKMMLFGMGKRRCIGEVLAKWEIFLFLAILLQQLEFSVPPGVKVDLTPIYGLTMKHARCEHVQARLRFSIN
Description: as §4, §5

CYP1A2 [12] = target: T1, CYP1A2; remark: listed apart in the source
Description: as §4
A total of 10 µL of the incubation sample were diluted with 90 µL of water containing 10–20% ACN or methanol, 0.1% formic acid and the respective internal standard. To analyze the intracellular metabolite concentration, cells on Transwell inserts were washed twice with ice-cold PBS and stored at −80 °C for 20 min. Afterwards, 150 µL 50% ACN diluted with transport buffer was added to the cells and incubated at room temperature for 30 min. […]

[13] = EpiIntestinal microtissues, GI firstpass availability, read-out: Recovery in Basal Comp. @ 24h (%)
[14] = clinical, ref Prescription information at fda.gov

COc1ccc(CCN2CCC(Nc3nc4ccccc4n3Cc3ccc(F)cc3)CC2)cc1 [Astemizole]
Availability in the receiver compartment on co-incubation with CYP2J2 inhibitor ([1]; 10 µM apical, Ebastein (50 µM)): increased
Availability in the receiver compartment on co-incubation with CYP2J2 inhibitor (Caco-2 cells [2]; 10 µM apical, Ebastein (50 µM)): increased

CC(C)NCC(O)COc1ccc(CC(N)=O)cc1 (centres unmarked) [Atenolol]
recovery at 24 h, 10 µM [3, 13]: 86%
Fa × Fg in Human (%) [4]: 50%

CC(C)c1c(C(=O)Nc2ccccc2)c(-c2ccccc2)c(-c2ccc(F)cc2)n1CC[C@@H](O)C[C@@H](O)CC(=O)O [Atorvastatin]
recovery at 24 h, 10 µM [3, 13]: 43%

O=C1CC2(CCCC2)CC(=O)N1CCCCN1CCN(c2ncccn2)CC1 [Buspirone]
recovery at 24 h, 10 µM [3, 13]: 60%
Fa × Fg in Human (%) [4]: 70%
CLp (plasma clearance) ([5]; clinical): 28.3 [8] mL/min/kg
fe (fraction of renal excretion) ([5]; clinical): 0.45 [19]

O=C1[C@H](CC[C@H](O)c2ccc(F)cc2)[C@@H](c2ccc(O)cc2)N1c1ccc(F)cc1 [Ezetimibe]
Parent (% of parent drug at T0) [6]: 40.3 % of parent drug at T0
Parent (% of parent drug at T0) [7]: 8.4 % of parent drug at T0

CCOC(=O)C1=C(C)NC(C)=C(C(=O)OC)C1c1cccc(Cl)c1Cl (centres unmarked) [Felodipine]
recovery at 24 h, 10 µM [3, 13]: 47%

CC(C)(C)NC(=O)[C@@H]1CN(Cc2cccnc2)CCN1C[C@@H](O)C[C@@H](Cc1ccccc1)C(=O)N[C@H]1c2ccccc2C[C@H]1O [Indinavir]
recovery at 24 h, 10 µM [3, 13]: 53%
Fa × Fg in Human (%) [4]: 100%
F (total oral availability) ([5]; clinical): 0.6 [8]
fe (fraction of renal excretion) ([5]; clinical): 0.085 [16]

CCc1c2c(nc3ccc(OC(=O)N4CCC(N5CCCCC5)CC4)cc13)-c1cc3c(c(=O)n1C2)COC(=O)[C@]3(O)CC [Irinotecan]
recovery at 24 h, 10 µM [3, 13]: 62%

COc1ccc2c3c([nH]c2c1)[C@H](CC(C)C)N1C(=O)[C@H](CCC(=O)OC(C)(C)C)NC(=O)[C@@H]1C3 [Ko-143]
Effect of inhibitor on the efflux of rosuvastatin (Caco-2 cells [8]): strongly reduced
Effect of inhibitor on the efflux of rosuvastatin [9]: strongly reduced

Cc1ncc2n1-c1ccc(Cl)cc1C(c1ccccc1F)=NC2 [Midazolam]
recovery at 24 h, 10 µM ([3]; with CYP3A4 inhibitor CYP3cide (1 µM), read-out: Recovery in basal/receiver compartment after 24 h): 75.9%
recovery at 24 h, 10 µM [3, 13]: 47%
recovery at 24 h, 10 µM ([3]; EpiIntestinal microtissues, no inhibitor, read-out: Recovery in basal/receiver compartment after 24 h): 46.7%
1-hydroxymidazolam (CYP3A4-selective metabolite) detected ([1]; midazolam 10 µM apical, no inhibitor): substantial amount
recovery at 24 h, 10 µM ([10]; no inhibitor): 81%
recovery at 24 h, 10 µM ([10]; with CYP3A4 inhibitor CYP3cide (1 µM)): 87.9%
1-hydroxymidazolam (CYP3A4-selective metabolite) detected (Caco-2 cells [2]; midazolam 10 µM apical): negligible amount
Fa × Fg in Human (%) [4]: 59%
Intracellular Metabolite (% of Total) (CYP3A4; CYP3A4/Midazolam, metabolite 1-OH-Midazolam): BLQ
Enzyme Activities Mean/SD (CYP3A4; CYP3A4/Midazolam, rate of 1-OH-Midazolam formation in supernatant): BLQ
blood plasma ratio (in vitro): 0.64
F (total oral availability) ([5]; clinical): 0.4 [8]
fe (fraction of renal excretion) ([5]; clinical): 0 [16]

COC(=O)C1=C(C)NC(C)=C(C(=O)OC)C1c1ccccc1[N+](=O)[O-] [Nifedipine]
fe (fraction of renal excretion) ([5]; in vivo): 0 [16]

CCN(CC)CC#CCOC(=O)C(O)(c1ccccc1)C1CCCCC1 (centres unmarked) [Oxybutynin]
Fa × Fg in Human (%) [4]: 9%
F (total oral availability) ([5]; clinical): 0.06 [8]
fe (fraction of renal excretion) [5, 14]: 0 *
CLp (plasma clearance) ([5]; in vivo): 5.1 [15] mL/min/kg

CCOc1ccc(NC(C)=O)cc1 [Phenacetin]
Intracellular Metabolite (% of Total) (CYP1A2 [11]): BLQ
Enzyme Activities Mean/SD (CYP1A2 [11]; human): 123.1/4.8 pmol/h/cm^2
Intracellular Metabolite (% of Total) (CYP1A2 [12]): BLQ
Enzyme Activities Mean/SD (CYP1A2 [12]; human): 17.4/3.0 pmol/h/cm^2

O=C(c1ccc(OCCN2CCCCC2)cc1)c1c(-c2ccc(O)cc2)sc2cc(O)ccc12 [Raloxifene]
Parent (% of parent drug at T0) [6]: 33.2 % of parent drug at T0
Parent (% of parent drug at T0) [7]: 2.4 % of parent drug at T0

CC(C)(C)NC(=O)[C@@H]1C[C@@H]2CCCC[C@@H]2CN1C[C@@H](O)[C@H](Cc1ccccc1)NC(=O)[C@H](CC(N)=O)NC(=O)c1ccc2ccccc2n1 [Saquinavir]
recovery at 24 h, 10 µM [3, 13]: 18%
Fa × Fg in Human (%) [4]: 25%
F (total oral availability) ([5]; clinical): 0.04 [8]
fe (fraction of renal excretion) [5, 14]: 0.01 *

C[C@]12CC[C@H]3[C@@H](CCC4=CC(=O)CC[C@@]43C)[C@@H]1CC[C@@H]2O [Testosterone]
Intracellular Metabolite (% of Total) (CYP3A4; CYP3A4/Testosterone, metabolite 6β-OH-Testosterone): BLQ

O[C@@H](COc1cccc2ncccc12)CN1CCN([C@@H]2c3ccccc3[C@@H]3[C@H](c4ccccc42)C3(F)F)CC1 [zosuquidar]
Effect of inhibitor on the efflux of rosuvastatin (Caco-2 cells [8]): minor effect
Effect of inhibitor on the efflux of rosuvastatin [9]: minor effect
